In patent US20230354862A1, “ANTI-DIABETIC COMPOSITION CONTAINING BEET MIXTURE AS ACTIVE INGREDIENT” (BAE RYEO INNOVATION CO., LTD., priority 2021, published 2023):

Experiments:
db/db mice [1] = experiment: Weekly biomarker analysis in type 2 diabetes model (body weight, food and water intake, blood glucose); format: in vivo, mouse; details: 300 mg/kg metformin (Met 300)
From the text: (§1) As experimental animals, 5-week-old specific-pathogen free (SPF) male db/db mice were obtained from Central Laboratory Animal, Inc. (Seoul, Korea), and acclimated for 1 week before use in the experiment. As an experimental food, normal mouse feed (Purina Lab Rodent Chow #38057, Purina Co., Seoul Korea) was fed, and during the acclimatization period, filtered water was replaced with fresh one daily and the animals were allowed access ad libitum to water. During the breeding period, the animals were kept under the following conditions: temperature, 23±1° C.; humidity, 50±5%; noise, 60 phone or less; lighting time, 08:00 to 20:00 (12 hours a day); illumination, 150 to 300 Lux; 10 to 12 ventilations per hour. This experiment was conducted in compliance with the Animal Experimental Ethics Regulations.
(§2) After completion of the acclimatization period, the experimental animals were divided into groups using the randomized block design based on fasting blood glucose that the mean values between the groups were uniform, and then the animals were marked using an ear punch. The animals were divided into a normal group, a control group, a group to which 10 mg/kg of the beet mixture was administered (10 mg/kg Beta vulgaris mixture group), a group to which 30 mg/kg of the beet mixture was administered (30 mg/kg Beta vulgaris mixture group), a group to which 30 mg/kg of the beet mixture was administered (30 mg/kg Beta vulgaris mixture group), and a positive control group (300 mg/kg metformin), each consisting of 8 animals. Each sample was orally administered 5 times a week for 3 weeks.
Weekly body weight and blood sugar level were all measured once a week at a certain time, and food intake and water intake were measured the next day after feeding certain amounts of food and water once a week. Weekly blood glucose levels were measured using blood collected from the caudal veins using a blood glucose meter (AutoCheck, Diatech Korea) at a certain time every week. […]
(§3) All experimental results were calculated as mean±standard error (S.E.) using SPSS ver. […]

db/db mice [2] = experiment: Oral glucose tolerance test in type 2 diabetes model; format: in vivo, mouse; details: 300 mg/kg metformin (Met 300)
From the text: as §1
(§4) After completion of the acclimatization period, the experimental animals were divided into groups using the randomized block design based on fasting blood glucose that the mean values between the groups were uniform, and then the animals were marked using an ear punch. […]
as §3

db/db mice [3] = experiment: Glycated hemoglobin (HbA1c) analysis in type 2 diabetes model; format: in vivo, mouse; details: after 3 weeks, 300 mg/kg metformin (Met 300)
From the text: as §1, §4, §3

db/db mice [4] = experiment: Tissue weight analysis in type 2 diabetes model; format: in vivo, mouse; details: 300 mg/kg metformin (Met 300)
From the text: as §1, §2
(§5) Weekly body weight and blood sugar level were all measured once a week at a certain time, and food intake and water intake were measured the next day after feeding certain amounts of food and water once a week. Weekly blood glucose levels were measured using blood collected from the caudal veins using a blood glucose meter (AutoCheck, Diatech Korea) at a certain time every week. For autopsy, blood was collected from the abdominal vena cava after inhalation anesthesia and used for blood analysis, and the liver, epididymal fat, pancreas, and kidney were harvested and weighed.
(§6) All experimental results were calculated as mean±standard error (S.E.) using SPSS ver. 12.0 (SPSS Inc., Chicago, IL, USA). Statistically significant differences between experimental groups were tested using a one-way analysis of variance test (ANOVA), and in case of significance (p<0.05), a post-test was performed with the Duncan's multiple range test.

db/db mice [5] = experiment: Hematological (serum) analysis in type 2 diabetes model; format: in vivo, mouse; details: 300 mg/kg metformin (Met 300)
From the text: as §1, §2, §5
Blood was collected from the abdominal vena cava, placed in conical tubes, coagulated for 30 minutes at room temperature, and then centrifuged at 3,000 rpm for 10 minutes. Analysis of blood fructosamine, TC, TG, LDL-C, HDL-C, and VLDL levels were performed by KPNT (Cheongju, Korea), and insulin analysis was performed using an ELISA kit (Crystalchem, USA). HOMA-IR and HOMA-beta levels were calculated based on the blood analysis results.
as §6

db/db mice [6] = experiment: Histological analysis of β-cell area (insulin immunostaining of pancreas); format: in vivo, mouse; details: 300 mg/kg metformin (Met 300)
From the text: as §1, with “Regulations. […]” for “Regulations.”
Analysis of the islets of Langerhans in the pancreatic tissue was performed by immunostaining. […] After washing twice with TBST buffer for 5 min, samples were reacted with 2.5% normal goat serum for blocking (Vector, USA) for 20 min, and then the blocking reagent and working insulin antibody (Cell Signaling, MA, USA) solution (2 to 10 μl of antibody to 1 ml of Ready-To-Use 2.5% normal goat serum for blocking) was reacted at 4° C. overnight. […]
as §3

SD rats [7] = experiment: Oral starch tolerance test (OATT); format: in vivo, rat
Description: As an experimental food, normal mouse feed (Purina Lab Rodent Chow #38057, Purina Co., Seoul Korea) was fed, and during the acclimatization period, filtered water was replaced with fresh one and the animals were allowed access ad libitum to water. During the breeding period, the animals were kept under the following conditions: temperature, 23±1° C.; humidity, 50±5%; noise, 60 phone or less; lighting time, 08:00 to 20:00 (12 hours a day); illumination, 150 to 300 Lux; 10 to 12 ventilations per hour. This experiment was conducted in compliance with the Animal Experimental Ethics Regulations. After completion of the acclimatization period, the experimental animals were divided into groups using the randomized block design based on fasting blood glucose that the mean values between the groups were uniform, and then the animals were marked using an ear punch. […] Changes in blood glucose levels in each group were analyzed based on the measured blood glucose levels. All experimental results were calculated as mean±standard error (mean±S.E.) using the statistical program (SPSS ver. 12.0, SPSS Inc., Chicago, IL, USA). […]

SD rats [8] = experiment: Oral sucrose tolerance test (OSTT); format: in vivo, rat; details: 3 mg/kg acarbose (A 3)
Description: As an experimental food, normal mouse feed (Purina Lab Rodent Chow #38057, Purina Co., Seoul Korea) was fed, and during the acclimatization period, filtered water was replaced with fresh one and the animals were allowed access ad libitum to water. During the breeding period, the animals were kept under the following conditions: temperature, 23±1° C.; humidity, 50±5%; noise, 60 phone or less; lighting time, 08:00 to 20:00 (12 hours a day); illumination, 150 to 300 Lux; 10 to 12 ventilations per hour. This experiment was conducted in compliance with the Animal Experimental Ethics Regulations. After completion of the acclimatization period, the experimental animals were divided into groups using the randomized block design based on fasting blood glucose that the mean values between the groups were uniform, and then the animals were marked using an ear punch. The animals were divided into a normal group, a control group, a group to which 10 mg/kg of the beet mixture was administered (10 mg/kg Beta vulgaris mixture group), a group to which 30 mg/kg of the beet mixture was administered (30 mg/kg Beta vulgaris mixture group), a group to which 30 mg/kg of the beet mixture was administered (30 mg/kg Beta vulgaris mixture group), and a positive control group (3 mg/kg acarbose), each consisting of 8 animals. Using these groups, an oral sucrose tolerance test (OSTT) and an oral starch tolerance test (OATT) were conducted. […] Changes in blood glucose levels in each group were analyzed based on the measured blood glucose levels. All experimental results were calculated as mean±standard error (mean±S.E.) using the statistical program (SPSS ver. 12.0, SPSS Inc., Chicago, IL, USA). Statistically significant differences between experimental groups were tested using a one-way analysis of variance test (ANOVA), and in case of significance (p<0.05), a post-test was performed with the Duncan's multiple range test.

CN(C)C(=N)N=C(N)N [metformin]
blood glucose level at 1 week after sample administration (db/db mice [1]): 167.0 ± 19.1 mg/dL | blood glucose level at 3 weeks after sample administration (db/db mice [1]): 238.8 ± 21.9 mg/dL | body weight at week 3 (db/db mice [1]): 34.04 ± 0.35 g | blood glucose level at 30 min after oral glucose administration (db/db mice [2]): 382.0 ± 31.0 mg/dL | change in blood glucose level after glucose administration (OGTT AUC) (db/db mice [2]): 778.06 ± 262.53 mg/dL | HbA1c level (db/db mice [3]): 6.79±0.29% | kidney tissue weight (db/db mice [4]; after 3 weeks): 0.303 ± 0.008 g | liver tissue weight (db/db mice [4]; after 3 weeks): 1.97 ± 0.06 g | epididymal fat tissue weight (db/db mice [4]; at autopsy): 1.761 ± 0.038 g | pancreatic tissue weight (db/db mice [4]; at autopsy): 0.116 ± 0.005 g | HOMA-IR level (insulin resistance) (db/db mice [5]): 0.975±0.199 | HOMA-β level (insulin secretion ability) (db/db mice [5]): 6.863±0.404 | serum HDL cholesterol level (db/db mice [5]): 105.09 ± 2.63 mg/dL | serum fructosamine level (db/db mice [5]): 319.13 ± 10.89 µmol/L | serum total cholesterol level (db/db mice [5]): 126.50 ± 2.24 mg/dL | LDL cholesterol level (db/db mice [5]; after 3 weeks): 12.94 ± 0.84 mg/dL | serum insulin level (db/db mice [5]; after 3 weeks): 12.94 ± 0.84 ng/mL | serum triglyceride level (db/db mice [5]; after 3 weeks): 236.13 ± 11.87 mg/dL | β-cell area (db/db mice [6]): 83242.23±11320.56 μm^2

C[C@H]1O[C@H](O[C@H]2[C@H](O)[C@@H](O)[C@@H](O[C@H]3[C@H](O)[C@@H](O)C(O)O[C@@H]3CO)O[C@@H]2CO)[C@H](O)[C@@H](O)[C@@H]1N[C@H]1C=C(CO)[C@@H](O)[C@H](O)[C@H]1O (stereo partly drawn) [acarbose]
change in blood glucose after starch administration (AUC) (SD rats [7]; 3 mg/kg acarbose (A 3)): 197.32 ± 7.12 mg/dL | blood glucose level at 30 min after starch administration (SD rats [7]; 3 mg/kg acarbose oral (A 3)): 90.63 ± 3.80 mg/dL | blood glucose level at 30 min after sucrose administration (SD rats [8]): 95.88 ± 3.20 mg/dL | blood glucose level at 120 min after sucrose administration (SD rats [8]): 80.38 ± 1.76 mg/dL | change in blood glucose level after sucrose administration (AUC) (SD rats [8]): 197.32 ± 7.12 mg/dL
